Assay [1] deals with Male Sprague-Dawley (SD) rats. Nature of the assay: Food intake studies (experiments A, B, C), food intake and body weight. The following applies: for food intake, difference to rats treated with Compound 3: 5 mg kg-1 each. The class given is in vivo, rat. The method, then: All experimental protocols were approved by internal guidelines. Different concentrations of drugs were administered I.P. in a 1 ml kg-1 (milliliters per kilogram) volume, except M6G, which was given s.c. (subcutaneously) in a 0.1 ml kg-1 volume.
Food and water were presented in inverted glass bottles that attached to the outside of the cage. Food was available for 18 h each day starting at 16:00 h (12 h light-dark cycle; lights off 16:00 h).
Intake measurements were taken at 1.5 h, 3 h, 5 h, and 18 h after food became available.
Rats were habituated to testing and handling procedures as before. […] Food intake and body weight were monitored daily.
On the day of the experiment each rat received only a single injection, 30 min later food was made available as described in experiment 1. Food intake was measured 0.5, 1.5, 3, 5, and 18 h after administration. Food intake and body weight were monitored daily for five days after the experiment to assess the sustained effect of a single administration of each compound.

A further assay addresses CB1 receptor (Rattus norvegicus, UniProt P20272). Nature of the assay: Thermoregulation assay: hypothermia induced by the CB1 agonist CP55,940. The format is in vivo. Further details: antagonized CB1 receptors in vivo; from tissue; host or cells: whole animal, male SD rats. The following applies: 5 mg kg-1 pre-treatment 45 min before CP55,940 0.3 mg kg-1; compared with vehicle. The method, then:
Briefly, silicone coated temperature data loggers (SubCue Inc, Calgary, Canada) were surgically implanted into the abdominal cavity of male SD (450-500 g) rats under isoflurane anesthesia (4% induction; 2-2.5% maintenance). Rats were allowed to recover for 3 days before being acclimatized to testing and handling procedures for an additional seven days. Core body temperature readings were sampled every 5 min for 300 min during the course of each experiment.

The next assay addresses T1, hCB1 (Homo sapiens, UniProt P21554).
T1 construct: expressed in transfected cells; host or cells: HEK293
Description: Forskolin-stimulated cAMP assay. The class given is cell-based. The following applies: HEK293 cells transfected with human CB1 receptors. The method, then: Intracellular cAMP levels were measured with a competitive protein-binding assay using intact HEK293 cells expressing hCB1 or hCB2 and a cAMP immunoassay kit from Sigma (St. Louis, Mo.). In short, forskolin stimulated cells were incubated with various concentrations of compound, cAMP anti-body and cAMP conjugate for 2 hours at ambient temperature. The reaction was stopped by emptying the wells followed by the addition of p-NPP substrate and incubation for 1 hour. […] The results were expressed as percent inhibition of forskolin-stimulated cAMP accumulation and EC50 curves were generated with the use of GraphPad Prism software.

A further assay concerns Rats. Description: Operant lever pressing on FR5 schedules. The class given is in vivo, rat. The following applies: for ED50: Rattus norvegicus. As for the experimental part:
Following the initial training period, rats (n=8 each group) were injected with drug and then tested once a week on Thursdays. For experiments 1 and 2, Compound 3 or Compound 2, respectively were injected IP at doses of 1.0, 2.0, 4.0, or 8.0 mg/kg or vehicle. Pretreatment time for these two experiments was 30 min. For experiments 3 and 4, rats were given drug or vehicle orally 1 hour before testing. In experiment 3, rats were given vehicle or 8.0, 16.0, or 32.0 mg/kg Compound 3. In experiment 4, rats received vehicle or Compound 2 at doses of 4.0, 8.0, or 16.0 mg/kg. All doses were given in a randomized order using a repeated measures design.

Read-outs that look alike come from different tables or passages of the source.

T1 sequence (P21554 whole entry): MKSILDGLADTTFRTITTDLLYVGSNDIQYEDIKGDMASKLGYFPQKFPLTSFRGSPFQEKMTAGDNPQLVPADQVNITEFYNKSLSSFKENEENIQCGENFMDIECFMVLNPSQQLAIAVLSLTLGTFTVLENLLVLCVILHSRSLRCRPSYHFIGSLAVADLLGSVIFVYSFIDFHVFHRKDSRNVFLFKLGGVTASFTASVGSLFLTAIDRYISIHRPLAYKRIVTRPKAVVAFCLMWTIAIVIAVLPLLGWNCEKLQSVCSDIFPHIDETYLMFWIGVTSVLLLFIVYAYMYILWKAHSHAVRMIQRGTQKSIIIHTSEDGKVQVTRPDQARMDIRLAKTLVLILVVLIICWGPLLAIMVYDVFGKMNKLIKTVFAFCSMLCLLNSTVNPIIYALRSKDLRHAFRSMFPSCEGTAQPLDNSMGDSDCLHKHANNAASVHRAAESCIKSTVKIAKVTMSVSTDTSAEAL
Chain of CB1 receptor (P20272 whole entry): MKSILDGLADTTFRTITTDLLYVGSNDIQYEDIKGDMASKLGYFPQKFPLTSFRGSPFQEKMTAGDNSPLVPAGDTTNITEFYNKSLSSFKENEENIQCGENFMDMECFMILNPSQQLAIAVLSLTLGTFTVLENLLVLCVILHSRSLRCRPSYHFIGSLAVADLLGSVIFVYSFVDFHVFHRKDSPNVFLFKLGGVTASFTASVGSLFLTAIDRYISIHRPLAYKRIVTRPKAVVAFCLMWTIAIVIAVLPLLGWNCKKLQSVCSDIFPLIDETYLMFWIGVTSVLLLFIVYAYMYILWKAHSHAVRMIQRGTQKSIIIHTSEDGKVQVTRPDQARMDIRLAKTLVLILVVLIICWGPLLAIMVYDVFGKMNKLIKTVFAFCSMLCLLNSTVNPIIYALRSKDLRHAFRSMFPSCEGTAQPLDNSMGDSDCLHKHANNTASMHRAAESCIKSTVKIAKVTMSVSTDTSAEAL

Take `Cc1c(C(=O)NN2CCCCC2)nn(-c2ccc(Cl)cc2Cl)c1-c1ccc(I)cc1` [Compound 1, N-(Piperidin-1-yl)-5-(4-iodophenyl)-1-(2,4-dichlorophenyl)-4-methyl-1H-pyrazole-3-carboxamide, reference compound]: in assay [1] (experiment A, 5 mg kg-1 I.P. single dose), the “acute effect on food intake compared with vehicle” value is listed as “significantly reduced food intake”. Further, the “food intake, difference to rats treated with Compound 3” value was -15.5 g in assay [1] (experiment A, 5 h) and -26.1 g in assay [1] (experiment A, 18 h). In assay [1] (experiment C, 5 mg kg-1 single dose), the “early effect on food intake at each time point” value is on record as “significantly reduced food intake”. Besides, in assay [1] (experiment C, single administration (Compound 1 5 mg kg-1; Compound 3 10, 20 mg kg-1)), the “weight gain for several days after the experiment” value is “significantly reduced”. In addition, the “hypothermic effect of CP55,940” value at CB1 receptor is “significantly attenuated”.
Regarding `Cc1c(C(=O)NN2CCOCC2)nn(-c2ccc(Cl)cc2Cl)c1-c1ccc(C#CCCC#N)cc1` [Compound 2], the “effect on forskolin stimulated cAMP production” value at hCB1 is “no effect”. Also, in the assay with Rats (IP 1.0, 2.0, 4.0, 8.0 mg/kg), the “suppression of FR5 responding compared to vehicle” value is given as “significantly suppressed”. Also, the ED50 was found to be 0.576 mg/kg with Rats (IP, pretreatment 30 min, read-out: ED50 for the effect on FR5 responding) and 1.49 mg/kg in the assay on Rats (oral, 1 hour before testing, read-out: ED50 for suppression of lever pressing on FR5). For the same compound, the “change in lever pressing on FR5 compared to vehicle” value with Rats (oral, 1 hour before testing (Compound 3 8.0-32.0 mg/kg; Compound 2 4.0-16.0 mg/kg)) is “dose-dependent decrease”.
